pIC50: −log10 of the molar value. Where “and” joins values, the source holds several entries; their conditions need not be identical. Equal entries are not always repeated.

As usually defined, the pIC50 is −log10 of the IC50, conventionally taken in molar units. One may read the viability, T/C as the ratio of treated to control.

This experiment has as its system MDA-MB-468 multi-cell spheroids, viability. Description: Anticancer human tumor MDA-MB-468 cell line growth inhibition [IpAb].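 On all read-outs here: spheroids exposed to agents for seven days.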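 On viability, T/C: 100% = DMSO vehicle control viability.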 As to conditions: for viability, T/C: stronger effect = lower value. The method in brief: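 Multi-cell spheroids of 60% tumour cells, 25% HUVEC and 15% MSC in ultra-low-attachment U-bottom wells, treated with agents combined with ipatasertib or abemaciclib. Half-log ranges top out near clinical Cmax, or 10 microM when Cmax is unknown.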

Setting [1] is: curve of first compound, second compound 0.01 µM.
Setting [2] is: curve of first compound, second compound 0.0316 µM.
[3] abbreviates: curve of first compound, second compound 0.1 µM.
Where [4] appears, read: curve of first compound, second compound 0.316 µM.
The mark [5] stands for this setting: curve of first compound, second compound 1 µM.
[6] abbreviates: second compound 0.01 µM, first compound 0.0316 µM.
The mark [7] stands for this setting: second compound 0.01 µM, first compound 0.1 µM.
Where [8] appears, read: second compound 0.0316 µM, first compound 0.0316 µM.
Setting [9] is: second compound 0.0316 µM, first compound 0.1 µM.
[10] abbreviates: second compound 0.1 µM, first compound 0.0316 µM.
Where [11] appears, read: second compound 0.1 µM, first compound 0.1 µM.
The mark [12] stands for this setting: second compound 0.316 µM, first compound 0.0316 µM.
Setting [13] is: second compound 0.316 µM, first compound 0.1 µM.
Where [14] appears, read: second compound 1 µM, first compound 0.0316 µM.
Where [15] appears, read: second compound 1 µM, first compound 0.1 µM.

With `CC(C)n1nc(-c2ccc3oc(N)nc3c2)c2c(N)ncnc21` + CCN1CCN(Cc2ccc(Nc3ncc(F)c(-c4cc(F)c5nc(C)n(C(C)C)c5c4)n3)nc2)CC1, the pIC50 under setting [1] is 7.94; the pIC50 under setting [2] is 7.98; the pIC50 under setting [3] was 7.95; the pIC50 under setting [4] is 7.83; the pIC50 under setting [5] is 7.94. For the same molecule, the viability, T/C is 90.8% (second compound 0.01 µM, first compound 0.000316 µM); 90% (second compound 0.01 µM, first compound 0.001 µM); 69.7% (second compound 0.01 µM, first compound 0.00316 µM); 57.6% (second compound 0.01 µM, first compound 0.01 µM); 24.9% under setting [6]; 10.6% under setting [7]. The viability, T/C is 95.6% (second compound 0.0316 µM, first compound 0.000316 µM); 81.4% (second compound 0.0316 µM, first compound 0.001 µM); 67% (second compound 0.0316 µM, first compound 0.00316 µM); 56% (second compound 0.0316 µM, first compound 0.01 µM); 26.4% under setting [8]; 11.6% under setting [9]. Also, the viability, T/C was 99% (second compound 0.1 µM, first compound 0.000316 µM); 78.3% (second compound 0.1 µM, first compound 0.001 µM); 75.8% (second compound 0.1 µM, first compound 0.00316 µM); 54% (second compound 0.1 µM, first compound 0.01 µM); 26.9% under setting [10]; 10.2% under setting [11]. Moreover, the viability, T/C is 91.4% (second compound 0.316 µM, first compound 0.000316 µM); 88.3% (second compound 0.316 µM, first compound 0.001 µM); 86% (second compound 0.316 µM, first compound 0.00316 µM); 54.7% (second compound 0.316 µM, first compound 0.01 µM); 35% under setting [12]; 14.5% under setting [13]. Further, the viability, T/C reads like this: (second compound 1 µM, first compound 0.000316 µM) 75.2%; (second compound 1 µM, first compound 0.001 µM) 81.3%; (second compound 1 µM, first compound 0.00316 µM) 64.2%; (second compound 1 µM, first compound 0.01 µM) 53.2%; under setting [14], 34%; under setting [15], 20%.

With `COc1c(OCCCN2CCOCC2)ccc2c3n(c(=NC(=O)c4cnc(N)nc4)nc12)CCN3`, the viability, T/C was 89% and 95.1% (compound 0.00316 µM); 95% and 91.5% (compound 0.01 µM); 73% and 72.7% (compound 0.0316 µM); 63.9% and 66.5% (compound 0.1 µM); 25.6% and 23.6% (compound 0.316 µM); 4.06% and 3.22% (compound 1 µM). Further, the pIC50 (curve of compound) is 6.85 and 6.86.

For the molecule `Cn1cnc2c(F)c(Nc3ccc(Br)cc3Cl)c(C(=O)NOCCO)cc21`, the viability, T/C runs as follows: (compound 0.00949 µM) 87.3% and 84.9%; (compound 0.03 µM) 92.3% and 85%; (compound 0.0949 µM) 65.1% and 77.8%; (compound 0.3 µM) 72% and 68.5%; (compound 0.949 µM) 59.6% and 59.1%; (compound 3 µM) 39.2% and 26.2%. For the same molecule, the pIC50 (curve of compound) is 5.81 and 5.92.

As for `CCCS(=O)(=O)Nc1ccc(F)c(C(=O)c2c[nH]c3ncc(-c4ccc(Cl)cc4)cc23)c1F` + CCN1CCN(Cc2ccc(Nc3ncc(F)c(-c4cc(F)c5nc(C)n(C(C)C)c5c4)n3)nc2)CC1, the pIC50 is, setting by setting: under setting [1], < 5.00; under setting [2], < 5.00; under setting [3], < 5.00; under setting [4], < 5.00; under setting [5], 5.30. Moreover, the viability, T/C is 89.8% under setting [6]; 88.3% under setting [7]; 101% (second compound 0.01 µM, first compound 0.316 µM); 124% (second compound 0.01 µM, first compound 1 µM); 108% (second compound 0.01 µM, first compound 3.16 µM); 88.7% (second compound 0.01 µM, first compound 10 µM). Also, the viability, T/C is, setting by setting: under setting [8], 104%; under setting [9], 91.1%; (second compound 0.0316 µM, first compound 0.316 µM) 99.1%; (second compound 0.0316 µM, first compound 1 µM) 113%; (second compound 0.0316 µM, first compound 3.16 µM) 79.5%; (second compound 0.0316 µM, first compound 10 µM) 57.5%. Besides, the viability, T/C by setting is: under setting [10], 106%; under setting [11], 114%; (second compound 0.1 µM, first compound 0.316 µM) 104%; (second compound 0.1 µM, first compound 1 µM) 117%; (second compound 0.1 µM, first compound 3.16 µM) 99.5%; (second compound 0.1 µM, first compound 10 µM) 51.4%. Besides, the viability, T/C reads like this: under setting [12], 102%; under setting [13], 103%; (second compound 0.316 µM, first compound 0.316 µM) 104%; (second compound 0.316 µM, first compound 1 µM) 98.4%; (second compound 0.316 µM, first compound 3.16 µM) 111%; (second compound 0.316 µM, first compound 10 µM) 64.1%. In addition, the viability, T/C is 76.9% under setting [14]; 78.4% under setting [15]; 85.7% (second compound 1 µM, first compound 0.316 µM); 74.2% (second compound 1 µM, first compound 1 µM); 66.5% (second compound 1 µM, first compound 3.16 µM); 26.2% (second compound 1 µM, first compound 10 µM).

As for `CC(=O)c1c(C)c2cnc(Nc3ccc(N4CCNCC4)cn3)nc2n(C2CCCC2)c1=O` + CCN1CCN(Cc2ccc(Nc3ncc(F)c(-c4cc(F)c5nc(C)n(C(C)C)c5c4)n3)nc2)CC1, the negative logarithm of the IC50 (pIC50) runs as follows: under setting [1], < 6.52; under setting [2], < 6.52; under setting [3], < 6.52; under setting [4], < 6.52; under setting [5], < 6.52. The viability, T/C (second compound 0.01 µM, first compound 0.000949 µM) is 99.7%; the viability, T/C (second compound 0.01 µM, first compound 0.003 µM) was 97.4%; the viability, T/C (second compound 0.01 µM, first compound 0.00949 µM) is 93.6%; the viability, T/C (second compound 0.01 µM, first compound 0.03 µM) was 88.4%; the viability, T/C (second compound 0.01 µM, first compound 0.0949 µM) is 84%; the viability, T/C (second compound 0.01 µM, first compound 0.3 µM) is 96.5%. For the same molecule, the viability, T/C runs as follows: (second compound 0.0316 µM, first compound 0.000949 µM) 92.2%; (second compound 0.0316 µM, first compound 0.003 µM) 99.2%; (second compound 0.0316 µM, first compound 0.00949 µM) 85.5%; (second compound 0.0316 µM, first compound 0.03 µM) 89.1%; (second compound 0.0316 µM, first compound 0.0949 µM) 82.6%; (second compound 0.0316 µM, first compound 0.3 µM) 86.6%. The viability, T/C by setting is: (second compound 0.1 µM, first compound 0.000949 µM) 101%; (second compound 0.1 µM, first compound 0.003 µM) 96.1%; (second compound 0.1 µM, first compound 0.00949 µM) 90.8%; (second compound 0.1 µM, first compound 0.03 µM) 92.8%; (second compound 0.1 µM, first compound 0.0949 µM) 85.3%; (second compound 0.1 µM, first compound 0.3 µM) 95.7%. Moreover, the viability, T/C was 106% (second compound 0.316 µM, first compound 0.000949 µM); 93.9% (second compound 0.316 µM, first compound 0.003 µM); 93.7% (second compound 0.316 µM, first compound 0.00949 µM); 83.7% (second compound 0.316 µM, first compound 0.03 µM); 88% (second compound 0.316 µM, first compound 0.0949 µM); 108% (second compound 0.316 µM, first compound 0.3 µM). For the same molecule, the viability, T/C is 74.7% (second compound 1 µM, first compound 0.000949 µM); 75% (second compound 1 µM, first compound 0.003 µM); 77.5% (second compound 1 µM, first compound 0.00949 µM); 71.4% (second compound 1 µM, first compound 0.03 µM); 83.1% (second compound 1 µM, first compound 0.0949 µM); 74.6% (second compound 1 µM, first compound 0.3 µM).

For the origin of these results see PubChem BioAssay AID2060326 (Molecular Pharmacology Branch, DTP, NCI, 2025).
